Laboratory results taken from PubChem BioAssay AID1919007 (Molecular Pharmacology Branch, DTP, NCI, 2023).

System: A498 complex spheroids with HUVEC/MSC, growth
Assay: Anticancer human tumor A498 cell line growth inhibition [AhR];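 further: seven day exposure starting three days after spheroid seeding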;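 on viability, T/C: luminescence signal used as a surrogate for viable cells; luminescence viability scaled so 100% equals DMSO vehicle wells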
Settings: for IC50: curve of first compound; for viability, T/C: stronger effect = lower value
Outline: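 Agents were dosed in half-log steps down from roughly clinical Cmax, or from 10 microM where Cmax was unknown, alone and with AhR antagonists. Read-out: percent test/control growth of tumor spheroids containing HUVEC and MSC stromal cells.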

What does the source list for `Cn1ncnc1C1c2n[nH]c(=O)c3cc(F)cc(c23)NC1c1ccc(F)cc1` (stereo not given) + Cc1ccccc1N=Nc1ccc(NC(=O)c2ccnn2C)c(C)c1?
IC50 (second compound 0.1 µM): > 100 nM; IC50 (second compound 0.316 µM): > 100 nM; IC50 (second compound 1 µM): > 100 nM; IC50 (second compound 3.16 µM): > 100 nM; IC50 (second compound 10 µM): > 100 nM; viability, T/C (second compound 0.1 µM, first compound 0.000316 µM): 102%; viability, T/C (second compound 0.1 µM, first compound 0.001 µM): 93.6%; viability, T/C (second compound 0.1 µM, first compound 0.00316 µM): 92.2%; viability, T/C (second compound 0.1 µM, first compound 0.01 µM): 94%; viability, T/C (second compound 0.1 µM, first compound 0.0316 µM): 86%; viability, T/C (second compound 0.1 µM, first compound 0.1 µM): 88%; viability, T/C (second compound 0.316 µM, first compound 0.000316 µM): 96.3%; viability, T/C (second compound 0.316 µM, first compound 0.001 µM): 91.5%; viability, T/C (second compound 0.316 µM, first compound 0.00316 µM): 95.1%; viability, T/C (second compound 0.316 µM, first compound 0.01 µM): 93.3%; viability, T/C (second compound 0.316 µM, first compound 0.0316 µM): 90.4%; viability, T/C (second compound 0.316 µM, first compound 0.1 µM): 88.2%; viability, T/C (second compound 1 µM, first compound 0.000316 µM): 93.5%; viability, T/C (second compound 1 µM, first compound 0.001 µM): 89%; viability, T/C (second compound 1 µM, first compound 0.00316 µM): 85.6%; viability, T/C (second compound 1 µM, first compound 0.01 µM): 81.2%; viability, T/C (second compound 1 µM, first compound 0.0316 µM): 81.5%; viability, T/C (second compound 1 µM, first compound 0.1 µM): 87.3%; viability, T/C (second compound 3.16 µM, first compound 0.000316 µM): 83.7%; viability, T/C (second compound 3.16 µM, first compound 0.001 µM): 86.8%; viability, T/C (second compound 3.16 µM, first compound 0.00316 µM): 88.7%; viability, T/C (second compound 3.16 µM, first compound 0.01 µM): 84.7%; viability, T/C (second compound 3.16 µM, first compound 0.0316 µM): 83.2%; viability, T/C (second compound 3.16 µM, first compound 0.1 µM): 73.7%; viability, T/C (second compound 10 µM, first compound 0.000316 µM): 82%; viability, T/C (second compound 10 µM, first compound 0.001 µM): 93%; viability, T/C (second compound 10 µM, first compound 0.00316 µM): 90.8%; viability, T/C (second compound 10 µM, first compound 0.01 µM): 85%; viability, T/C (second compound 10 µM, first compound 0.0316 µM): 79.6%; viability, T/C (second compound 10 µM, first compound 0.1 µM): 81.7%

`CCN(c1cc(-c2ccc(CN3CCOCC3)cc2)cc(C(=O)NCc2c(C)cc(C)[nH]c2=O)c1C)C1CCOCC1` + CC(CO)NC(=O)c1cc(-c2ccc(Cl)cc2)nn(-c2cnn(C)c2)c1=O was tested. Which IC50 (second compound 0.1 µM) did it give?
The IC50 was > 3000 nM.

What about the IC50 (second compound 0.316 µM) of the same compound?
Its IC50 is > 3000 nM.

What about the IC50 (second compound 1 µM) of the same compound?
Its IC50 is > 3000 nM.

What about the IC50 (second compound 3.16 µM) of the same compound?
The IC50 was > 3000 nM.

And the IC50 (second compound 10 µM)?
The IC50 was > 3000 nM.

What about the viability, T/C (second compound 0.1 µM, first compound 0.00949 µM) of the same compound?
Its viability, T/C is 99.8%.

What about the viability, T/C (second compound 0.1 µM, first compound 0.03 µM) of the same compound?
Its viability, T/C is 95%.

And the viability, T/C (second compound 0.1 µM, first compound 0.0949 µM)?
The viability, T/C was 97.8%.

And the viability, T/C (second compound 0.1 µM, first compound 0.3 µM)?
The viability, T/C was 95.6%.

And the viability, T/C (second compound 0.1 µM, first compound 0.949 µM)?
The viability, T/C was 102%.

What about the viability, T/C (second compound 0.1 µM, first compound 3 µM) of the same compound?
Its viability, T/C is 103%.

What about the viability, T/C (second compound 0.316 µM, first compound 0.00949 µM) of the same compound?
The viability, T/C was 93.2%.

What about the viability, T/C (second compound 0.316 µM, first compound 0.03 µM) of the same compound?
Its viability, T/C is 101%.

And the viability, T/C (second compound 0.316 µM, first compound 0.0949 µM)?
The viability, T/C was 97.8%.

And the viability, T/C (second compound 0.316 µM, first compound 0.3 µM)?
Its viability, T/C is 93.3%.

And the viability, T/C (second compound 0.316 µM, first compound 0.949 µM)?
Its viability, T/C is 96.1%.

What about the viability, T/C (second compound 0.316 µM, first compound 3 µM) of the same compound?
The viability, T/C was 98.9%.

What about the viability, T/C (second compound 1 µM, first compound 0.00949 µM) of the same compound?
The viability, T/C was 94.4%.

And the viability, T/C (second compound 1 µM, first compound 0.03 µM)?
The viability, T/C was 95.8%.

And the viability, T/C (second compound 1 µM, first compound 0.0949 µM)?
The viability, T/C was 103%.

And the viability, T/C (second compound 1 µM, first compound 0.3 µM)?
The viability, T/C was 92.3%.

What about the viability, T/C (second compound 1 µM, first compound 0.949 µM) of the same compound?
Its viability, T/C is 95.4%.

And the viability, T/C (second compound 1 µM, first compound 3 µM)?
Its viability, T/C is 97.4%.

And the viability, T/C (second compound 3.16 µM, first compound 0.00949 µM)?
The viability, T/C was 84.3%.

And the viability, T/C (second compound 3.16 µM, first compound 0.03 µM)?
The viability, T/C was 96.2%.

What about the viability, T/C (second compound 3.16 µM, first compound 0.0949 µM) of the same compound?
The viability, T/C was 101%.

What about the viability, T/C (second compound 3.16 µM, first compound 0.3 µM) of the same compound?
Its viability, T/C is 88.5%.

What about the viability, T/C (second compound 3.16 µM, first compound 0.949 µM) of the same compound?
The viability, T/C was 85.6%.

What about the viability, T/C (second compound 3.16 µM, first compound 3 µM) of the same compound?
Its viability, T/C is 102%.

And the viability, T/C (second compound 10 µM, first compound 0.00949 µM)?
Its viability, T/C is 72.7%.

What about the viability, T/C (second compound 10 µM, first compound 0.03 µM) of the same compound?
Its viability, T/C is 77.5%.

And the viability, T/C (second compound 10 µM, first compound 0.0949 µM)?
Its viability, T/C is 83.3%.

And the viability, T/C (second compound 10 µM, first compound 0.3 µM)?
The viability, T/C was 75.3%.

What about the viability, T/C (second compound 10 µM, first compound 0.949 µM) of the same compound?
The viability, T/C was 70.3%.

What about the viability, T/C (second compound 10 µM, first compound 3 µM) of the same compound?
Its viability, T/C is 75.9%.
